Experimental data reported in PMC3629977 (Journal of nuclear medicine : official publication, Society …, 2010).
Bridge positions count the residues as written; N and C are the ends. Square brackets hold non-standard residues; d marks the D form. Peptide text beside a SMILES is read from it. * marks the point of attachment. 2Nal = N[C@@H](Cc1ccc2ccccc2c1)C(=O)O; Benzoyl(4-F) = O=C(c1ccc(F)cc1)*; Cit = NC(=O)NCCC[C@H](N)C(=O)O

What was measured:
[1] = test system: stem cells from the bone marrow; conditions: compared with AMD3100/plerixafor; cited from earlier work
[2] = test system: CXCR4; conditions: cited from earlier work
[3] = test system: CHO-CXCR4 tumors; conditions: 4-^18F-T140 alone, mice bearing CHO and CHO-CXCR4 tumors; Fig. 5A: 2 h after injection, 50 μCi
[4] = test system: red blood cells; conditions: mouse, in vivo
[5] = test system: CHO-CXCR4 tumors; conditions: in vivo
[6] = female, athymic nude, mouse, iv, 3 h

In the case of `N=C(N)NCCC[C@H](NC(=O)[C@@H]1CSSC[C@H](NC(=O)[C@H](Cc2ccc3ccccc3c2)NC(=O)[C@H](CCCNC(=N)N)NC(=O)[C@H](CCCNC(=N)N)NC(=O)c2ccc(F)cc2)C(=O)N[C@@H](Cc2ccc(O)cc2)C(=O)N[C@@H](CCCNC(N)=O)C(=O)N[C@@H](CCCCN)C(=O)N[C@H](CCCCN)C(=O)N2CCC[C@H]2C(=O)N[C@@H](Cc2ccc(O)cc2)C(=O)N[C@@H](CCCNC(=N)N)C(=O)N[C@@H](CCCNC(N)=O)C(=O)N1)C(N)=O` [4-F-T140, 4-F-benzoyl-TN14003] ({Benzoyl(4-F)}-RR[2Nal]CY[Cit]K[dK]PYR[Cit]CR-NH2; disulfide 4-13), the “in vivo mobilization of stem cells from the bone marrow” value [1] is given as “increased in vivo mobilization of stem cells from the bone marrow” and the CXCR4 antagonist selectivity [2] is given as “highly selective CXCR4 antagonist”.

In the case of `N=C(N)NCCC[C@H](NC(=O)[C@@H]1CSSC[C@H](NC(=O)[C@H](Cc2ccc3ccccc3c2)NC(=O)[C@H](CCCNC(=N)N)NC(=O)[C@H](CCCNC(=N)N)NC(=O)c2ccc(F)cc2)C(=O)N[C@@H](Cc2ccc(O)cc2)C(=O)N[C@@H](CCCNC(N)=O)C(=O)N[C@@H](CCCCN)C(=O)N[C@H](CCCCN)C(=O)N2CCC[C@H]2C(=O)N[C@@H](Cc2ccc(O)cc2)C(=O)N[C@@H](CCCNC(=N)N)C(=O)N[C@@H](CCCNC(N)=O)C(=O)N1)C(N)=O` [4-^18F-T140, 4-^18F-benzoyl-TN14003] ({Benzoyl(4-F)}-RR[2Nal]CY[Cit]K[dK]PYR[Cit]CR-NH2; disulfide 4-13), the “PET visualization of tumors” value [3] is reported as “clearly showed both tumors”, the “binding to red blood cells” value [4] is reported as “bind specifically to red blood cells in vitro and in vivo” and the “tumor-to-blood ratio (CHO-CXCR4)” value [5, 6] is reported as 0.19 ± 0.04. The “tumor-to-muscle ratio (CHO-CXCR4)” value [5, 6] was 2.94 ± 0.16 and the “difference of uptake between CHO-CXCR4 and CXCR4-negative CHO tumors” value [5] was “not statistically significant”.
